Values after ≈ are worked out from the molar mass of the structure shown.
Columns and labels:
Cyberlindnera jadinii = assay: Antimicrobial activity against Candida utilis by two-fold serial dilution technique; type: functional; details: Williopsis jadinii
Aspergillus flavus = assay: Antimicrobial activity against Aspergillus flavus by two-fold serial dilution technique; type: functional
Saccharomyces cerevisiae = assay: Antimicrobial activity against Saccharomyces cerevisiae by two-fold serial dilution technique; type: functional
Candida albicans = assay: Antimicrobial activity against Candida albicans by two-fold serial dilution technique; type: functional
Candida = assay: Antimicrobial activity against Candida mycoderma by two-fold serial dilution technique; type: functional
Micrococcus luteus = assay: Antimicrobial activity against Micrococcus luteus ATCC 4698 by two-fold serial dilution technique; type: functional
Staphylococcus aureus = assay: Antimicrobial activity against methicillin-resistant Staphylococcus aureus N315 by two-fold serial dilution technique; type: functional
Pseudomonas aeruginosa = assay: Antimicrobial activity against Pseudomonas aeruginosa by two-fold serial dilution technique; type: functional
Bacillus subtilis = assay: Antimicrobial activity against Bacillus subtilis by two-fold serial dilution technique; type: functional
Shigella dysenteriae = assay: Antimicrobial activity against Shigella dysenteriae by two-fold serial dilution technique; type: functional
Escherichia coli = assay: Antimicrobial activity against Escherichia coli JM109 by two-fold serial dilution technique; type: functional
[1] = n-Octanol-water partition coefficient, log P of the compound after 24 hrs by shake flask method; type: physicochemical

SMILES | MIC (Cyberlindnera jadinii) [µg/mL] | MIC (Aspergillus flavus) [µg/mL] | MIC (Saccharomyces cerevisiae) [µg/mL] | MIC (Candida albicans) [µg/mL] | MIC (Candida) [µg/mL] | MIC (Micrococcus luteus) [µg/mL] | MIC (Staphylococcus aureus) [µg/mL] | MIC (Pseudomonas aeruginosa) [µg/mL] | MIC (Bacillus subtilis) [µg/mL] | MIC (Shigella dysenteriae) [µg/mL] | MIC (Escherichia coli) [µg/mL] | logP at 24 h [1]
Cc1cc(=O)oc2cc(OCC3CO3)ccc12 (configuration not stated) | 32 (≈ 138 µM) | 1 (≈ 4.31 µM) | 1 (≈ 4.31 µM) | 16 (≈ 68.9 µM) | 8 (≈ 34.4 µM) | 4 (≈ 17.2 µM) | 128 (≈ 551 µM) | 8 (≈ 34.4 µM) | 2 (≈ 8.61 µM) | 4 (≈ 17.2 µM) | 0.5 (≈ 2.15 µM) | 
Cc1cc(=O)oc2cc(OCC(O)Cn3cncn3)ccc12 (configuration not stated) | 4 (≈ 13.3 µM) | 6 (≈ 19.9 µM) | 32 (≈ 106 µM) | 4 (≈ 13.3 µM) | 16 (≈ 53.1 µM) | 16 (≈ 53.1 µM) | 32 (≈ 106 µM) | 4 (≈ 13.3 µM) | 32 (≈ 106 µM) | 32 (≈ 106 µM) | 64 (≈ 212 µM) | 0.45
Cc1cc(=O)oc2cc(OCC(O)Cn3nnc4ccccc43)ccc12 (configuration not stated) | 16 (≈ 45.5 µM) | 256 (≈ 729 µM) | 8 (≈ 22.8 µM) | 4 (≈ 11.4 µM) | 16 (≈ 45.5 µM) | 32 (≈ 91.1 µM) | 16 (≈ 45.5 µM) | 32 (≈ 91.1 µM) | 16 (≈ 45.5 µM) | 64 (≈ 182 µM) | 16 (≈ 45.5 µM) | 0.6
Cc1cc(=O)oc2cc(OCC(O)Cn3cnc4ccccc43)ccc12 (configuration not stated) | 512 (≈ 1460 µM) | > 512 | 512 (≈ 1460 µM) | 128 (≈ 365 µM) | 128 (≈ 365 µM) | 512 (≈ 1460 µM) | 512 (≈ 1460 µM) | > 512 | 128 (≈ 365 µM) | 512 (≈ 1460 µM) | 128 (≈ 365 µM) | 0.55
Cc1cc2ncn(CC(O)COc3ccc4c(C)cc(=O)oc4c3)c2cc1C (configuration not stated) | 4 (≈ 10.6 µM) | 128 (≈ 338 µM) | 32 (≈ 84.6 µM) | 16 (≈ 42.3 µM) | 16 (≈ 42.3 µM) | 128 (≈ 338 µM) | 64 (≈ 169 µM) | 64 (≈ 169 µM) | 128 (≈ 338 µM) | 64 (≈ 169 µM) | 128 (≈ 338 µM) | 0.61
Cc1cc(=O)oc2cc(OCC(O)CSc3nc4ccccc4[nH]3)ccc12 (configuration not stated) | 0.5 (≈ 1.31 µM) | 16 (≈ 41.8 µM) | 64 (≈ 167 µM) | 32 (≈ 83.7 µM) | 16 (≈ 41.8 µM) | 16 (≈ 41.8 µM) | 32 (≈ 83.7 µM) | 64 (≈ 167 µM) | 32 (≈ 83.7 µM) | 64 (≈ 167 µM) | 0.5 (≈ 1.31 µM) | 0.49
Cc1cc(=O)oc2cc(OCC3CO3)cc(OCC3CO3)c12 (configuration not stated) | 16 (≈ 52.6 µM) | 16 (≈ 52.6 µM) | 8 (≈ 26.3 µM) | 8 (≈ 26.3 µM) | 8 (≈ 26.3 µM) | 8 (≈ 26.3 µM) | 64 (≈ 210 µM) | 8 (≈ 26.3 µM) | 4 (≈ 13.1 µM) | 4 (≈ 13.1 µM) | 0.5 (≈ 1.64 µM) | 

From ChEMBL document CHEMBL3352064, “Synthesis and bioactive evaluation of a novel series of coumarinazoles” (Bioorg Med Chem Lett, 2014)
